Common to all, as to type: in vivo
Assay [1] concerns Erysiphe graminis f. sp. tritici. Briefly: Efficacy against Erysiphe graminis on wheat plants (preventive spray, 24 h before contamination). The conditions noted are these: grading 7 to 14 days after contamination. Here is the method: (§1) The active ingredients tested are prepared by potter homogenisation in a mixture of acetone/tween/water. This suspension is then diluted with water to obtain the desired active material concentration.
Wheat plants (Audace variety) in starter cups, sown on 50/50 peat soil-pozzolana substrate and grown at 12° C., are treated at the 1-leaf stage (10 cm tall) by spraying with the aqueous suspension described above.
(§2) Plants, used as controls, are treated with an aqueous solution not containing the active material.
After 24 hours, the plants are contaminated by dusting them with Erysiphe graminis f. sp. tritici spores, the dusting being carried out using diseased plants.
(§3) Grading is carried out 7 to 14 days after the contamination, in comparison with the control plants.

Another assay relates to Botrytis cinerea. Briefly: Efficacy against Botrytis cinerea on gherkin plants (preventive spray, 24 h before contamination). The conditions noted are these: grading 5 to 7 days after contamination. Here is the method: The formulated (concentrated suspension) compounds are diluted with water to obtain the desired active material concentration Gherkin plants (Petit vert de Paris variety) in starter cups, sown on a 50/50 peat soil-pozzolana substrate and grown at 18-20° C., are treated at the cotyledon Z11 stage by spraying with the aqueous suspension described above. Plants, used as controls, are treated with an aqueous solution not containing the active material.
After 24 hours, the plants are contaminated by depositing drops of an aqueous suspension of Botrytis cinerea spores (150,000 spores per ml) on upper surface of the leaves. The spores are collected from a 15-day-old culture and are suspended in a nutrient solution composed of: • 20 g/L of gelatine • 50 g/L of cane sugar • 2 g/L of NH4NO3 • 1 g/L of KH2PO4
The contaminated gherkin plants are settled for 5/7 days in a climatic room at 15-11° C. (day/night) and at 80% relative humidity. Grading (% of efficacy) is carried out 5 to 7 days after the contamination, in comparison with the control plants.

In assay [2] the test system is Erysiphe graminis f. sp. hordei. Briefly: Efficacy against Erysiphe graminis f. sp. hordei on barley plants (preventive spray, 24 h before contamination). To be noted: dose 500 g/ha, grading 7 to 14 days after contamination. Here is the method:
as §1
Barley plants (Express variety) in starter cups, sown on 50/50 peat soil-pozzolana substrate and grown at 12° C., are treated at the 1-leaf stage (10 cm tall) by spraying with the aqueous suspension described above.
as §2
After 24 hours, the plants are contaminated by dusting them with Erysiphe graminis f. sp. hordei spores, the dusting being carried out using diseased plants.
as §3

For `O=C(NCCc1ncc(C(F)(F)F)cc1Cl)c1ccccc1C(F)(F)F` [Compound 1, N-{2-[3-chloro-5-(trifluoromethyl)-2-pyridinyl]ethyl}-2-trifluoromethylbenzamide], the figures for the “% Efficacy” value (in assay [1] (dose 500 g/ha); in the assay on Botrytis cinerea (dose 37 ppm); in assay [2]) were 35%, 45% and 40%, respectively.
As for `CC#Cc1cc(C)nc(Nc2ccccc2)n1` [Mepanipyrim, mepanipyrim], the “% Efficacy” value in assay [2] was determined as 0%.
As for `Cc1cc(C2CC2)nc(Nc2ccccc2)n1` [Cyprodinil, cyprodinil], the “% Efficacy” value in assay [1] (dose 31.2 g/ha) is given as 0%.
`Cc1cc(C)nc(Nc2ccccc2)n1` [Pyrimethanil, pyrimethanil]: in the assay with Botrytis cinerea (dose 12.3 ppm), the “% Efficacy” value turned out to be 90%.

Values taken from patent publication US8410020B2, “Fungicidal composition comprising a pyridylethylbenzamide derivative and a compound capable of inhibiting the methionine biosynthesis” (Bayer Cropscience AG, priority 2004, dated 2013).
